The values below are quoted from earlier work in the CATMoS acute toxicity set (Mansouri et al. 2021).

“And” between values parts separate entries of the source, which are not always exact repeats. Equal entries are not always repeated.

The series can be described thus: rat acute oral toxicity. The following applies: in vivo.
For `COP(=S)(OC)SCC(=O)O`, the median lethal dose (LD50) (in general, the dose at which mortality reaches 50%) is 2500 mg/kg.

Regarding `C=CCON/C(CCC)=C1\C(=O)CC(C)(C)C(C(=O)OC)C1=O` (stereo not given), the LD50 is 2260 mg/kg.

Regarding `O=c1oc(=O)c2cc3c(=O)oc(=O)c3cc12`, the LD50 is 2250 mg/kg.

Regarding `CC(C)(C)N(Cl)Cl`, the LD50 was 780 mg/kg.

With `O=C(CCl)CCl`, the LD50 is 20 mg/kg.

Regarding `O=C1NS(=O)(=O)c2ccccc21`, the LD50 was 14200 mg/kg.

In the case of `O=C(O)c1cc([N+](=O)[O-])cc([N+](=O)[O-])c1O`, the LD50 is 860 mg/kg.

On to `Nc1ccc(Cl)cc1Cl`, for which the LD50 is 1600 mg/kg.

As to `COC(=O)C(C(C)=O)C(C)=O`, the LD50 was 1700 mg/kg.

As to `FC(F)(F)c1nc2c(C(F)(F)F)cc(Cl)cc2[nH]1`, the LD50 was 1.66 mg/kg.

Take `CCOP(=O)(NC)Oc1ccc(SC)c(C)c1` (stereo not given): the LD50 was 5 mg/kg.

For `CNC(=O)Oc1ccccc1C1OCCO1`, the median lethal dose (LD50) was 25 mg/kg.

As to `CN(C)S(=O)(=O)c1cc(Cl)c(N)cc1Cl`, the LD50 was 4090 mg/kg.

Turning to `CC1(C)[C@H](C=C2CCCC2)[C@H]1C(=O)OCc1coc(Cc2ccccc2)c1`, the median lethal dose (LD50) was 63 mg/kg.

With `CC(C(=O)O)c1ccc2oc(-c3ccc(Cl)cc3)nc2c1` (stereo not given), the 50% lethal dose (LD50) is 118 mg/kg.

Consider `SCc1cnccn1`, for which the LD50 is 1700 mg/kg.

Take `CN1C(C(=O)Nc2ccccn2)=C(O)c2sccc2S1(=O)=O`: the median lethal dose (LD50) is 79 mg/kg.

In the case of `ClCCC(Cl)(Cl)Cl`, the LD50 was 490 mg/kg.

On to `O=c1cc(O)c1=O`, for which the 50% lethal dose (LD50) was 41 mg/kg.

Consider `CC(C)(C)NCC(O)COc1ccccc1C#N` (stereo not given), for which the LD50 is 639 mg/kg.

Turning to `O=C(OCC1CO1)c1ccccc1C(=O)OCC1CO1` (stereo not given), the LD50 was 1240 mg/kg.

As to `O=[N+]([O-])c1ccc(Oc2c(F)cc(Cl)cc2Cl)cc1`, the LD50 was 2890 mg/kg.

As to `COP(=S)(Oc1ccc([N+](=O)[O-])cc1)Oc1ccc([N+](=O)[O-])cc1`, the 50% lethal dose (LD50) was 312 mg/kg.

With `NC(=O)OC(CCl)Cc1ccccc1` (stereo not given), the LD50 was 490 mg/kg.

Consider `Nc1nc(N)c2cc(N(Cc3ccc(Cl)c(Cl)c3)N=O)ccc2n1`, for which the LD50 is 317 mg/kg.

Take `C1COCCOCCNCCOCCOCCN1`: the LD50 is 3400 mg/kg.

With `CCOc1ccc(NC(=O)C(N=Nc2ccc(-c3ccc(N=NC(C(C)=O)C(=O)Nc4ccc(OCC)cc4)c(Cl)c3)cc2Cl)C(C)=O)cc1` (stereo not given), the 50% lethal dose (LD50) was 2230 mg/kg.

Regarding `C[C@@]12CCCCC[C@@H](Cc3ccc(O)cc31)[C@@H]2N`, the 50% lethal dose (LD50) is 243 mg/kg.

`COc1ccc(N)cc1N`: the LD50 is 460 mg/kg.

For `CCOc1ccc(N(C)C(=O)C(C(C)O)N(C)C)cc1` (stereo not given), the median lethal dose (LD50) was 1350 mg/kg.

As for `CC1CS1` (stereo not given), the 50% lethal dose (LD50) is 254 mg/kg.

With `O=C(O)Cc1csc(-c2ccc(Cl)cc2)n1`, the median lethal dose (LD50) is 850 mg/kg.

In the case of `CN(C)CCOC(C)(c1ccccc1)c1ccc(Cl)cc1` (stereo not given), the 50% lethal dose (LD50) was 1000 mg/kg.

`CC(=O)OC[C@H]1O[C@@H](n2ncc(=O)[nH]c2=O)[C@H](OC(C)=O)[C@@H]1OC(C)=O`: the LD50 was 12000 mg/kg.

As for `CC1=NN(c2ccc(C)cc2)C(=O)C1`, the LD50 was 7450 mg/kg.

Turning to `CCc1nn(-c2ccc(F)cc2)c2c(=O)[nH]ccc12`, the 50% lethal dose (LD50) is 375 mg/kg.

`COc1cc(C(F)(F)F)ccn1`: the 50% lethal dose (LD50) is 1750 mg/kg.

Turning to `CON(C)C(=O)CC(SP(=S)(OC)OC)C(=O)N(C)OC` (stereo not given), the LD50 is 14 mg/kg.

In the case of `Nc1ccc(O)c(Cc2cc(N)ccc2O)c1`, the LD50 is 25 mg/kg.

As for `CCCSP(=O)(OCC)Oc1ccccc1` (stereo not given), the median lethal dose (LD50) is 295 mg/kg.

Regarding `CCCS(=O)(=O)/C=C/S(=O)(=O)CCC`, the LD50 is 200 mg/kg.

`CNC(=O)OC1C2(C)CCC(C2)C1(C)C` (stereo not given): the 50% lethal dose (LD50) is 500 mg/kg.

For the compound `CCOP(=O)(OCC)SC(P(=O)(OCC)OCC)(P(=O)(OCC)OCC)P(=O)(OCC)OCC`, the median lethal dose (LD50) was 28 mg/kg.

`CC(C)NCC(O)COc1cccc2[nH]ccc12` (stereo not given): the LD50 was 263 mg/kg.

For the compound `CCCCOCCCOC(=O)CCOc1cc(Cl)c(Cl)cc1Cl`, the median lethal dose (LD50) is 500 mg/kg.

As for `CNC(C)Cc1ccccc1` (racemic), the LD50 was 29 mg/kg.

For `C=C(Cl)c1ccc([N+](=O)[O-])cc1`, the median lethal dose (LD50) is 710 mg/kg.

Take `O=C1c2ccccc2C(=O)N1CC1CO1` (stereo not given): the LD50 was 4700 mg/kg.

Take `CCSP(=O)(OC)SCC`: the LD50 was 158 mg/kg.

Turning to `C1CCc2c(OCCN3CCOCC3)n[nH]c2C1`, the LD50 was 1600 mg/kg.

Consider `C=COCCOCC1CO1` (stereo not given), for which the median lethal dose (LD50) was 2440 mg/kg.

`CCOC(=O)C1(CCCCCCOc2ccc(Cl)cc2)CO1` (stereo not given): the LD50 was 250 mg/kg.

Turning to `CCN(CC)CCOc1nn(-c2cccc(C(F)(F)F)c2)c2ncccc12`, the LD50 is 1200 mg/kg.

Consider `C=CCn1ccc(=O)c(O)c1C`, for which the LD50 is 800 mg/kg.

As to `COP(=O)(NC=O)SC` (stereo not given), the 50% lethal dose (LD50) is 190 mg/kg.

`C[N+]1(CCCl)CCCO1` (stereo not given): the LD50 is 3 mg/kg.

As for `Cc1ccsc1/C=C/C1=NCCCN1C`, the median lethal dose (LD50) was 926 mg/kg.

With `CC(C)NCC(O)COC(C)c1ccccc1` (stereo not given), the median lethal dose (LD50) is 540 mg/kg.

`O=S(=O)(O)CCS`: the LD50 is 4440 mg/kg.

`CCC(Cc1c(I)cc(I)c(N)c1I)C(=O)O` (stereo not given): the LD50 was 2990 mg/kg and 1540 mg/kg.
